Calls of active or inactive are those of the source. No cut-off for these calls is given here.
Biological target: T1, Cytosolic carboxypeptidase 2 (Homo sapiens) (UniProt Q5U5Z8)
T1 sequence (whole entry): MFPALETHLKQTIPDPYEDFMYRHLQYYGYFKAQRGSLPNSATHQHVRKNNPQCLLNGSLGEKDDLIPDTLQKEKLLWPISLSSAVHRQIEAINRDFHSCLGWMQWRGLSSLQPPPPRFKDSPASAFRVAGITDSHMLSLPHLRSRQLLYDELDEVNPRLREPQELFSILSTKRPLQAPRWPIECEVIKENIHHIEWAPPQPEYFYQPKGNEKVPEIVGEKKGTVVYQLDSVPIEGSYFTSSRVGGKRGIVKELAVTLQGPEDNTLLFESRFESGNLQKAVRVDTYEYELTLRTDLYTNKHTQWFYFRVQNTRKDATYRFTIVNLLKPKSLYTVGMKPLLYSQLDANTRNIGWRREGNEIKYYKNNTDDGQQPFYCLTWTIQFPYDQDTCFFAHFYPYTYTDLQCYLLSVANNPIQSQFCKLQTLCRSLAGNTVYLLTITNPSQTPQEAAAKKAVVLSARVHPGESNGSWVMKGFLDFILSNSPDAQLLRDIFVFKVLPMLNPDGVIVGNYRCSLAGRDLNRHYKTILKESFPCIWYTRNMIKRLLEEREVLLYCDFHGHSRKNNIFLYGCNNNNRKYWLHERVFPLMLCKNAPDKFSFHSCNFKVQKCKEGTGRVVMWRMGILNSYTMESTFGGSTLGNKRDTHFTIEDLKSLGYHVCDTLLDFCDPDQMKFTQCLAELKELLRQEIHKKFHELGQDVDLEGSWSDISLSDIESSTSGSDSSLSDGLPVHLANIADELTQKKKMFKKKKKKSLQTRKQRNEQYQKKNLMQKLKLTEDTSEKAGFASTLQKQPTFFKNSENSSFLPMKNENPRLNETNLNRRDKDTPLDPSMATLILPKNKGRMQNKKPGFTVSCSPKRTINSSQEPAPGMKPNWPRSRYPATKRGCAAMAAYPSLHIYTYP
Test: Inhibition of AGBL2 (unknown origin) expressed in HEK293 stably expressing TIG1 assessed as reduction in de-tyrosinated to tyrosinated ratio of alpha-tubulin at 1 uM incubated for 2 hrs by Western blotting analysis relative to control
Type: cell-based

Row | SMILES | inhibition (active/inactive call)
1 | Cc1cc(F)cnc1CC(=O)O | Active
2 | O=C(O)Cc1cccc(C(=O)Nc2ccc3c(c2)OCO3)c1 | Active
3 | CC(C)c1ccc(Sc2ccc(F)cc2CC(=O)O)cc1 | Active
4 | Cc1cc(C(F)(F)F)cnc1CC(=O)O | Active

— ChEMBL document CHEMBL4418494, “Small molecule inhibitors of AGBL2” (2015)
